Test results as given in patent US20220098228A1, “METHODS AND COMPOSITIONS FOR IMPROVING THE IMMUNE SYSTEM AND PROVIDING IMMUNO-PROTECTION” (Natreon, Inc., priority 2020, published 2022).
Like-named read-outs stand apart in the source and are kept apart here. Marks after values point to notes of the source that are not given here.

Experiments:
peritoneal macrophages [1] = assay: NBT reduction assay in peritoneal macrophages, cyclophosphamide-induced immunosuppression (Example II); assay type: in vivo, Swiss albino mice; conditions: for OD (515 nm), NBT reduction assay in peritoneal macrophages: Mean ± SD, n = 6; for improvement in NBT reduction capacity: 10 mg/kg body weight p.o., in comparison with cyclophosphamide treated mice
Method: (§1) The mice were acclimatized for one week in the laboratory conditions, before being used in the experiment. All experiments were conducted between 10.00 hr and 14.00 hr. Principles of laboratory animal care (NIH publication no. 85-23, revised 1985) were followed.
(§2) All test compounds (DBPs and DBP glycosides) were suspended in 0.3% of CMC (Carboxymethyl Cellulose) solutions of distilled water and were administered orally for 7 days by using an intubation canula. The volume of dose was 100 μl/10 g body weight. Cyclophosphamide was dissolved in distilled water and was injected (250 mg/kg, i.p.) on day one and volume of dose was 100 μl/10 g body weight. Control animals received equivalent volume of the vehicles CMC (0.3%) solutions only.
On day seven all the animals were sacrificed under ether anesthesia and peritoneal macrophages were lavaged using ice cold phosphate buffer saline (PBS: 0.15M NaCl pH-7.4). After centrifugation (3000 rpm×10 min) at 4° C. the pellet was re-suspended in PBS and cell viability was confirmed by trypan blue exclusion method. (Bala A, Haldar P K, Kar B, Naskar S and Mazumder U K, “Carbon tetrachloride: A hepatotoxin causes oxidative stress in murine peritoneal macrophage and peripheral blood lymphocyte cells” Immunopharmacol. and Immunotoxicol. 34(1): 157-162 (2012)).
Preparation of NBT solution: 0.2% NBT (nitroblue tetrazolium) in PB (Phosphate Buffer, pH 7.4), 5% dextrose and HBSS (Hank's balanced salt solution). The three solutions were mixed in 6:2:4 ratios. (Saxena A K, Singh K P, Srivastava S N, Shukla L J and Shanker R., “Immunomodulating effects of caffeine in rodents” Ind J Exptl Biol. 22: 298-301 (1984)).
Method: 0.5 ml of NBT solution was added to 0.5 ml of peritoneal macrophages (1×10^6 cells/ml) in a micro-centrifuge tube. This mixture was incubated at 37° C. for 45 minutes. The cell suspension was centrifuged at 1500 rpm for 10 minutes. Supernatant was discarded and pellet was re-suspended in 2 ml of DMSO. The tubes were kept in a boiling water bath for 10 minutes. The tubes were again centrifuged at 1500 rpm for 10 minutes. The supernatant was collected, and absorbance was measured at 515 nm.

splenocytes [2] = assay: Cell viability of splenocytes, trypan blue exclusion, cyclophosphamide-induced immunosuppression (Example II); assay type: in vivo, Swiss albino mice; conditions: for % Cell Viability of splenocytes: Mean ± SD, n = 6
Method: as §1, §2
Spleen was collected. Single cell suspension was prepared by mincing and tapping the spleen fragments on stainless steel 200-mesh in ice cold phosphate buffer saline (PBS: 0.15M NaCl pH 7.4). Cell suspension was centrifuged at 2000 rpm for 10 minutes. The pellet was re-suspended in PBS and cell viability was confirmed by trypan blue exclusion method.

Swiss albino mice = assay: Cyclophosphamide-induced immunosuppression in mice, overall conclusion (Example II); assay type: in vivo; conditions: treatment for 7 days at 10 mg/kg body weight (p.o.)
Method: All experiments were conducted between 10.00 hr and 14.00 hr. […] Control animals received equivalent volume of the vehicles CMC (0.3%) solutions only.

[3] = for Body Weight (gm) Day 0 / Feed Intake (gm) Day 0 / Water Intake (ml) Day 0 / Body Weight (gm) Day 7 / Feed Intake (gm) Day 7 / Water Intake (ml) Day 7: cyclophosphamide 250 mg/kg i.p. alone; for feed intake compared to vehicle control: 3,8-(OH)2-DBP 50 mg/kg
Method: (§3) Male and female Swiss albino mice (n=8; 4 from each gender) weighing approximately 25±5 g, were obtained from National Research Institute of Ayurveda for Drug Development (Govt. of India), Kolkata, and were housed in polypropylene cages at 22±3° C., relative air humidity of 45 to 55%, with 12.00 h light & dark cycle (lighting on from 6:00 AM to 6:00 PM). […] The mice were acclimatized for one week in the laboratory conditions, before being used in the experiment. All experiments were conducted between 10.00 h and 14.00 h. Principles of laboratory animal care (NIH publication no. 85-23, revised 1985) was followed.
(§4) Cyclophosphamide was dissolved in distilled water and the mice were administered a single exposure (250 mg/kg, i.p.) on day 1.
(§5) 3-OH-DBP, 3,8-(OH)2-DBP, and combined 3-OH-DBP+3,8-(OH)2-DBP were administered once daily for 7 days starting from day 1. Following 7 days of treatment the mice were anaesthetized and sacrificed under anaesthesia followed by collection of peritoneal macrophages and spleen (for splenocyte isolation).
(§6) Swiss albino mice were randomly divided into 8 Groups (n=8; 4 from each gender). […] (2:10) (12 mg/kg b.w., p.o.), Group VI mice were administered 3-OH-DBP (10 mg/kg b.w., p.o.), Group VII mice were administered 3,8-(OH)2-DBP (50 mg/kg b.w., p.o.), Group VIII mice were administered [3-OH-DBP+3,8-(OH)2-DBP] (10:50) (60 mg/kg b.w., p.o.).
(§7) Results were expressed in terms of mean±SEM (n=8; 4 from each gender). Data were subjected to one way ANOVA followed by Tukey's test using GraphPad Prism 4.0 software to establish statistical significance (*p<0.05, **p<0.01, ***p<0.001, where * refers to comparison with Group I vehicle control; #p<0.05, ##p<0.01, ###p<0.001, where #refers to comparison with Group II cyclophosphamide administration; ^ap<0.05, ^aap<0.01, ^aap<0.01, where a refers to comparison of Day 7 with Day 0).

peritoneal macrophages [4] = assay: Peritoneal macrophage viability, trypan blue exclusion (Example III); assay type: in vivo, Swiss albino mice; conditions: for % Viability Day 7, peritoneal macrophage viability: cyclophosphamide 250 mg/kg i.p. alone
Method: as §3, §4, §5, §6
(§8) All the animals were sacrificed under ether anesthesia and peritoneal macrophages were lavaged using ice cold phosphate buffer saline (PBS: 0.15 M NaCl; pH: 7.4). After centrifugation (3000 rpm×10 min) at 4° C., pellets were re-suspended in PBS and cell viability was confirmed by trypan blue exclusion assay.
as §7

peritoneal macrophages [5] = assay: NBT reduction of peritoneal macrophages (Example III); assay type: in vivo, Swiss albino mice; conditions: for NBT reduction compared with vehicle control: cyclophosphamide, 3-OH-DBP 2 and 10 mg/kg, combined 12 mg/kg
Method: as §3, §4, §5, §6, §8
Preparation of NBT solution: 0.2% NBT (nitroblue tetrazolium) in PBS (pH 7.4), 5% dextrose and HBSS. These three solutions were mixed in 6:2:4 ratios.
0.5 ml of NBT solution was added to 0.5 ml of peritoneal macrophages (1×10^6 cells/ml) in micro-centrifuge tube. This mixture was incubated at 37° C. for 2 hours. The cell suspension was centrifuged at 2000 rpm for 10 minutes. Supernatants were discarded and pellets were re-suspended in 1 ml of DMSO. The tubes were kept in boiling water bath for 10 minutes and then cooled and centrifuged at 2000 rpm for 10 minutes. The supernatants were collected and absorbance was measured at 515 nm.
as §7

splenocytes [6] = assay: Splenocyte viability, trypan blue exclusion (Example III); assay type: in vivo, Swiss albino mice; conditions: for % Viability Day7, splenocyte viability: Day 7, cyclophosphamide 250 mg/kg i.p. alone
Method: as §3, §4, §5, §6
Spleens were collected and single cell suspension was prepared by mincing and tapping the spleen fragments on stainless steel 200-mesh in ice cold phosphate buffer saline (PBS: 0.15M NaCl; pH: 7.4). Cell suspensions were centrifuged at 2000 rpm for 10 minutes.
as §7

[7] = 10 mg/kg body weight p.o. 7 days + cyclophosphamide 250 mg/kg i.p.
[8] = cyclophosphamide 250 mg/kg i.p. day one, alone, day 7
[9] = female mice, cyclophosphamide alone

SMILES: O=c1oc2cc(OC3OC(CO)C(O)C(O)C3O)ccc2c2ccc(OC3OC(CO)C(O)C(O)C3O)cc12 [3,8-(OH)2-DBP glycoside, 3,8-di-(O-D-Glucopyranosyl)-Dibenzo-alpha-pyrone]
- OD (515 nm), NBT reduction assay in peritoneal macrophages (peritoneal macrophages [1]; [7]): 0.153 ± 0.013
- improvement in NBT reduction capacity (peritoneal macrophages [1]): moderate (p<0.05) improvement
- % Cell Viability of splenocytes (splenocytes [2]; [7]): 58.58 ± 4.49%
- Cyclophosphamide-induced immunosuppression (conclusion) (Swiss albino mice): rescued

SMILES: O=c1oc2cc(OC3OC(CO)C(O)C(O)C3O)ccc2c2ccccc12 [3-OH-DBP glycoside, 3-O-D-Glucopyranosyl-Dibenzo-alpha-pyrone]
- OD (515 nm), NBT reduction assay in peritoneal macrophages (peritoneal macrophages [1]; [7]): 0.168 ± 0.014
- improvement in NBT reduction capacity (peritoneal macrophages [1]): highest level of improvement
- % Cell Viability of splenocytes (splenocytes [2]; [7]): 60.39 ± 5.85 %
- improvement in splenocyte viability (splenocytes [2]; 10 mg/kg p.o. in cyclophosphamide-treated mice): significant improvement
- Cyclophosphamide-induced immunosuppression (conclusion) (Swiss albino mice): rescued

SMILES: O=P1(N(CCCl)CCCl)NCCCO1 (stereo not shown) [Cyclophosphamide, reference compound]
- OD (515 nm), NBT reduction assay in peritoneal macrophages (peritoneal macrophages [1]; [8]): 0.117 ± 0.015
- NBT reduction capacity of peritoneal macrophages (peritoneal macrophages [1]; cyclophosphamide alone vs CMC control): significant (p<0.001) decrease
- % Cell Viability of splenocytes (splenocytes [2]; [8]): 51.12 ± 4.69 %
- splenocyte viability (splenocytes [2]; cyclophosphamide alone vs control): significantly (p<0.01) decreased
- Body Weight (gm) Day 0 ([3]; female mice): 23.00 ± 1.89 gm
- Feed Intake (gm) Day 0 ([3]; female mice): 28.50 ± 0.96 gm
- Water Intake (ml) Day 0 ([3]; female mice): 3.620 ± 0.16 mL
- Body Weight (gm) Day 7 ([3]; female mice): 21.75 ± 0.63 gm
- Feed Intake (gm) Day 7 ([3]; female mice): 24.71 ± 0.41^a gm
- Water Intake (ml) Day 7 ([3]; female mice): 6.425 ± 0.48 mL
- feed intake compared to vehicle control ([3]; female mice, cyclophosphamide, 3-OH-DBP 10 mg/kg): significantly (p<0.05, p<0.01) decreased
- Body Weight (gm) Day 0 ([3]; male mice): 30.75 ± 1.89 gm
- Feed Intake (gm) Day 0 ([3]; male mice): 28.50 ± 0.96 gm
- Water Intake (ml) Day 0 ([3]; male mice): 6.125 ± 0.16 mL
- Body Weight (gm) Day 7 ([3]; male mice): 30.50 ± 2.18 gm
- Feed Intake (gm) Day 7 ([3]; male mice): 26.81 ± 0.86^a gm
- Water Intake (ml) Day 7 ([3]; male mice): 5.863 ± 0.15*,## ml
- feed intake compared to vehicle control ([3]; male mice, cyclophosphamide, 3-OH-DBP 10 mg/kg): significantly (p<0.05, p<0.01) decreased
- feed intake Day 7 in comparison to Day 0 ([3]; male mice, cyclophosphamide, 3-OH-DBP 10 mg/kg, 3,8-(OH)2-DBP 10 and 50 mg/kg): significantly (p<0.05, p<0.01) decreased
- % Viability Day 7, peritoneal macrophage viability (peritoneal macrophages [4]; female mice): 58.19 ± 0.60** %
- peritoneal macrophage viability compared with vehicle control (peritoneal macrophages [4]; [9]): significantly (p<0.05) decreased
- % Viability Day 7, peritoneal macrophage viability (peritoneal macrophages [4]; male mice): 55.72 ± 2.18* %
- peritoneal macrophage viability compared with vehicle control (peritoneal macrophages [4]; male mice, cyclophosphamide, 3-OH-DBP 2 mg/kg, 3,8-(OH)2-DBP 10 mg/kg): significantly (p<0.05) decreased
- O.D. (515 nm) Day 7, NBT reduction of peritoneal macrophages (peritoneal macrophages [5]; female mice, Day 7, cyclophosphamide 250 mg/kg i.p. alone): 0.119 ± 0.005***
- NBT reduction compared with vehicle control (peritoneal macrophages [5]; female mice, 3,8-(OH)2-DBP 10 and 50 mg/kg): significantly (p<0.05, p<0.01, p<0.001) decreased
- O.D (515 nm) Day 7, NBT reduction of peritoneal macrophages (peritoneal macrophages [5]; male mice, Day 7, cyclophosphamide 250 mg/kg i.p. alone): 0.209 ± 0.02419***
- NBT reduction compared with vehicle control (peritoneal macrophages [5]; male mice, 3,8-(OH)2-DBP 10 mg/kg): significantly (p<0.01, p<0.001) decreased
- % Viability Day7, splenocyte viability (splenocytes [6]; female mice): 79.70 ± 1.58*** %
- splenocyte viability compared with vehicle control (splenocytes [6]; [9]): significantly (p<0.001) decreased
- % Viability Day7, splenocyte viability (splenocytes [6]; male mice): 70.22 ± 0.98*** %
- splenocyte viability compared with vehicle control (splenocytes [6]; male mice, cyclophosphamide, 2 mg/kg 3-OH-DBP, 10 mg/kg 3,8-(OH)2-DBP, 12 mg/kg combined): significantly (p<0.001) decreased
